ChEMBL document CHEMBL3044662, “Synthesis and potential antibacterial activity of new rhodanine-3-acetic acid derivatives” (2013)
Converted amounts (≈) assume the structure as drawn.

Legend:
Type in all cases: functional
Escherichia coli [1] = assay: Antibacterial activity against Escherichia coli CCARM 1356 assessed as growth inhibition after 20 hr by two-fold serial dilution method; conditions: CCARM 1356, 20 h
Staphylococcus aureus [2] = assay: Antibacterial activity against quinolene-resistant Staphylococcus aureus CCARM 3505 clinical isolate assessed as growth inhibition after 20 hr by two-fold serial dilution method; conditions: CCARM 3505, 20 h
Escherichia coli [3] = assay: Antibacterial activity against Escherichia coli CCARM 1924 assessed as growth inhibition after 20 hr by two-fold serial dilution method; conditions: CCARM 1924, 20 h
Staphylococcus aureus [4] = assay: Antibacterial activity against methicillin-resistant Staphylococcus aureus CCARM 3506 clinical isolate assessed as growth inhibition after 20 hr by two-fold serial dilution method; conditions: CCARM 3506, 20 h
Staphylococcus aureus [5] = assay: Antibacterial activity against Staphylococcus aureus KCTC 503 assessed as growth inhibition after 20 hr by two-fold serial dilution method; conditions: KCTC 503, 20 h
Staphylococcus aureus [6] = assay: Antibacterial activity against methicillin-resistant Staphylococcus aureus CCARM 3167 clinical isolate assessed as growth inhibition after 20 hr by two-fold serial dilution method; conditions: CCARM 3167, 20 h
Staphylococcus aureus [7] = assay: Antibacterial activity against Staphylococcus aureus subsp. aureus RN4220 assessed as growth inhibition after 20 hr by two-fold serial dilution method; conditions: RN4220, 20 h
Staphylococcus aureus [8] = assay: Antibacterial activity against quinolene-resistant Staphylococcus aureus CCARM 3519 clinical isolate assessed as growth inhibition after 20 hr by two-fold serial dilution method; conditions: CCARM 3519, 20 h

SMILES | MIC (Escherichia coli [1]) [µg/mL] | MIC (Escherichia coli [3]) [µg/mL] | MIC (Staphylococcus aureus [5]) [µg/mL] | MIC (Staphylococcus aureus [7]) [µg/mL] | MIC (Staphylococcus aureus [2]) [µg/mL] | MIC (Staphylococcus aureus [4]) [µg/mL] | MIC (Staphylococcus aureus [6]) [µg/mL] | MIC (Staphylococcus aureus [8]) [µg/mL]
Cc1ccc(COc2ccc3cc(/C=C4\SC(=S)N(CC(=O)O)C4=O)ccc3c2)cc1 | > 64 | > 64 | 4 (≈ 8.9 µM) | 2 (≈ 4.45 µM) | 4 (≈ 8.9 µM) | 4 (≈ 8.9 µM) | 2 (≈ 4.45 µM) | 8 (≈ 17.8 µM)
COc1ccc(COc2ccc3cc(/C=C4\SC(=S)N(CC(=O)O)C4=O)ccc3c2)cc1OC | > 64 | > 64 | 8 (≈ 16.1 µM) | 4 (≈ 8.07 µM) | 8 (≈ 16.1 µM) | 8 (≈ 16.1 µM) | 8 (≈ 16.1 µM) | 8 (≈ 16.1 µM)
O=C(O)CN1C(=O)/C(=C/c2ccc3cc(OCc4ccccc4)ccc3c2)SC1=S | > 64 | > 64 | 64 (≈ 147 µM) | 64 (≈ 147 µM) | 64 (≈ 147 µM) | 64 (≈ 147 µM) | 64 (≈ 147 µM) | 64 (≈ 147 µM)
O=C(O)CN1C(=O)/C(=C/c2ccc3cc(OCc4ccc(F)cc4)ccc3c2)SC1=S | > 64 | > 64 | 4 (≈ 8.82 µM) | 4 (≈ 8.82 µM) | 4 (≈ 8.82 µM) | 2 (≈ 4.41 µM) | 4 (≈ 8.82 µM) | 4 (≈ 8.82 µM)
CCn1cc(C(=O)O)c(=O)c2cc(F)c(N3CCNCC3)cc21 [NORFLOXACIN] | 16 (≈ 50.1 µM) | 16 (≈ 50.1 µM) | 2 (≈ 6.26 µM) | 2 (≈ 6.26 µM) | > 64 | 4 (≈ 12.5 µM) | 8 (≈ 25.1 µM) | > 64
O=C(O)CN1C(=O)/C(=C/c2ccc3cc(OCc4ccc([N+](=O)[O-])cc4)ccc3c2)SC1=S | > 64 | > 64 | 32 (≈ 66.6 µM) | 64 (≈ 133 µM) | 8 (≈ 16.6 µM) | 8 (≈ 16.6 µM) | 4 (≈ 8.32 µM) | 4 (≈ 8.32 µM)
Cc1onc(-c2ccccc2)c1C(=O)N[C@@H]1C(=O)N2[C@@H]1SC(C)(C)[C@@H]2C(=O)O [OXACILLIN] | > 64 | > 64 | 1 (≈ 2.49 µM) | 1 (≈ 2.49 µM) | 1 (≈ 2.49 µM) | > 64 | > 64 | 1 (≈ 2.49 µM)
CN(C)c1ccc(COc2ccc3cc(/C=C4\SC(=S)N(CC(=O)O)C4=O)ccc3c2)cc1 | > 64 | > 64 | 64 (≈ 134 µM) | 64 (≈ 134 µM) | > 64 | > 64 | > 64 | > 64
O=C(O)CN1C(=O)/C(=C/c2ccc3cc(OCc4ccc(Br)cc4)ccc3c2)SC1=S | > 64 | > 64 | 2 (≈ 3.89 µM) | 2 (≈ 3.89 µM) | 4 (≈ 7.78 µM) | 1 (≈ 1.94 µM) | 1 (≈ 1.94 µM) | 4 (≈ 7.78 µM)
COc1ccc(COc2ccc3cc(/C=C4\SC(=S)N(CC(=O)O)C4=O)ccc3c2)cc1 | > 64 | > 64 | 8 (≈ 17.2 µM) | 4 (≈ 8.59 µM) |  | 2 (≈ 4.3 µM) | 2 (≈ 4.3 µM) | 8 (≈ 17.2 µM)
O=C(O)CN1C(=O)/C(=C/c2ccc3cc(OCc4ccc(Cl)cc4)ccc3c2)SC1=S | > 64 | > 64 | 4 (≈ 8.51 µM) | 2 (≈ 4.26 µM) | 4 (≈ 8.51 µM) | 2 (≈ 4.26 µM) | 2 (≈ 4.26 µM) | 4 (≈ 8.51 µM)
O=C(O)CN1C(=O)/C(=C/c2ccc3cc(OCc4ccc(C(F)(F)F)cc4)ccc3c2)SC1=S | > 64 | > 64 | 4 (≈ 7.94 µM) | 4 (≈ 7.94 µM) | 64 (≈ 127 µM) | 2 (≈ 3.97 µM) | 2 (≈ 3.97 µM) | 64 (≈ 127 µM)
O=C(O)CN1C(=O)/C(=C/c2ccc3cc(OCc4cccc(Br)c4)ccc3c2)SC1=S | > 64 | > 64 | 64 (≈ 124 µM) | 32 (≈ 62.2 µM) | > 64 | 64 (≈ 124 µM) | 64 (≈ 124 µM) | > 64

Further lines, with some results ahead:

MIC (Escherichia coli [1]) [µg/mL] | MIC (Escherichia coli [3]) [µg/mL] | MIC (Staphylococcus aureus [5]) [µg/mL] | MIC (Staphylococcus aureus [7]) [µg/mL] | SMILES | MIC (Staphylococcus aureus [2]) [µg/mL] | MIC (Staphylococcus aureus [4]) [µg/mL] | MIC (Staphylococcus aureus [6]) [µg/mL] | MIC (Staphylococcus aureus [8]) [µg/mL]
> 64 | > 64 | > 64 | > 64 | O=C(O)CN1C(=O)/C(=C/c2ccc3cc(OCc4ccccc4Cl)ccc3c2)SC1=S |  |  |  | 
> 64 | > 64 | > 64 | > 64 | O=C(O)CN1C(=O)/C(=C/c2ccc3cc(OCc4ccccc4Br)ccc3c2)SC1=S |  |  |  | 
> 64 | > 64 | > 64 | > 64 | O=C(O)CN1C(=O)/C(=C/c2ccc3cc(O)ccc3c2)SC1=S |  |  |  | 
> 64 | > 64 | > 64 | > 64 | O=C(O)CN1C(=O)/C(=C/c2ccc3cc(OCc4cccc(C(F)(F)F)c4)ccc3c2)SC1=S |  |  |  | 
> 64 | > 64 | > 64 | > 64 | O=C(O)CN1C(=O)/C(=C/c2ccc3cc(OCc4ccc(I)cc4)ccc3c2)SC1=S |  |  |  | 
> 64 | > 64 | > 64 | > 64 | O=C(O)CN1C(=O)/C(=C/c2ccc3cc(OCc4cccc(Cl)c4)ccc3c2)SC1=S |  |  |  | 
> 64 | > 64 | > 64 | > 64 | O=C(O)CN1C(=O)/C(=C/c2ccc3cc(OCc4ccc(Cl)c(Cl)c4)ccc3c2)SC1=S |  |  |  | 
> 64 | > 64 | > 64 | > 64 | COc1cccc(COc2ccc3cc(/C=C4\SC(=S)N(CC(=O)O)C4=O)ccc3c2)c1 |  |  |  | 
> 64 | > 64 | > 64 | > 64 | N#Cc1ccc(COc2ccc3cc(/C=C4\SC(=S)N(CC(=O)O)C4=O)ccc3c2)cc1 |  |  |  | 
> 64 | > 64 | > 64 | > 64 | O=C(O)CN1C(=O)/C(=C/c2ccc3cc(OCc4ccc(Cl)cc4Cl)ccc3c2)SC1=S |  |  |  | 
> 64 | > 64 | > 64 | > 64 | Cc1ccc(COc2ccc3cc(/C=C4\SC(=S)N(CC(=O)O)C4=O)ccc3c2)cc1C |  |  |  | 
> 64 | > 64 | > 64 | > 64 | O=C(O)CN1C(=O)/C(=C/c2ccc3cc(OCc4cccc(F)c4)ccc3c2)SC1=S |  |  |  | 
> 64 | > 64 | > 64 | > 64 | N#Cc1ccccc1COc1ccc2cc(/C=C3\SC(=S)N(CC(=O)O)C3=O)ccc2c1 |  |  |  | 
> 64 | > 64 | > 64 | > 64 | O=C(O)CN1C(=O)/C(=C/c2ccc3cc(OCc4c(Cl)cccc4Cl)ccc3c2)SC1=S |  |  |  | 
> 64 | > 64 | > 64 | > 64 | O=C(O)CN1C(=O)CSC1=S [RHODANINE-3-ACETIC ACID] |  |  |  | 
